Data reported in publication PMC3542538 (Journal of medicinal chemistry, 2012).
“Also recorded” adds a separate entry of the source. Structures can show the parent of a compound that is named as a salt.

Assays:
[1] = target: recombinant Tdp1 (Homo sapiens, UniProt Q9NUW8); type: biochemical
[2] = system: all human cancer cell lines successfully tested; experiment: cells; conditions: read-out: MGM (mean graph midpoint GI50)
[3] = system: single-stranded DNA substrate; experiment: Surface plasmon resonance binding to single-stranded DNA substrate; conditions: SPR
[4] = target: T1, recombinant human Top1 (Homo sapiens, UniProt P11387); experiment: Topoisomerase I-mediated DNA cleavage reactions; type: biochemical; conditions: 100 μM
T1 sequence (P11387 1-765): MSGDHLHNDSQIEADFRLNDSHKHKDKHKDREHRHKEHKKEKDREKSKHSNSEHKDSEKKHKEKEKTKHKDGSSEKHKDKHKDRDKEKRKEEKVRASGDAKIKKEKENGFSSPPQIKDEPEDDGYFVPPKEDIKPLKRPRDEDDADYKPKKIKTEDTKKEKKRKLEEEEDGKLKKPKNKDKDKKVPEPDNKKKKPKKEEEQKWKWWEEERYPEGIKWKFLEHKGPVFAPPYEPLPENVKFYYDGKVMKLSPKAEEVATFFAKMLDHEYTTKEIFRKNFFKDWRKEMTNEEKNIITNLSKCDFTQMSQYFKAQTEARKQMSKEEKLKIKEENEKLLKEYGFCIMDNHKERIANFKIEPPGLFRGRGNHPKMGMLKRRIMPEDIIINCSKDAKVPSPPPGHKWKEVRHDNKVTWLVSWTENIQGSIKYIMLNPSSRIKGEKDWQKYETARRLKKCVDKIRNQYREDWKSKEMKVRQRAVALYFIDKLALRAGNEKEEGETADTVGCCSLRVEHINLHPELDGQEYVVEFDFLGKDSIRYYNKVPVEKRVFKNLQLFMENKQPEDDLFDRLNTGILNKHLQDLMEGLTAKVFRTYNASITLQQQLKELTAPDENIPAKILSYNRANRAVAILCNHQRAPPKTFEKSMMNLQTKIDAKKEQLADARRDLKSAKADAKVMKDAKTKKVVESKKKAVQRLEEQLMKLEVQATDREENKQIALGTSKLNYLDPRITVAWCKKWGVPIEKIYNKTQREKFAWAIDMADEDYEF

Sequence of recombinant Tdp1 (Q9NUW8 whole entry): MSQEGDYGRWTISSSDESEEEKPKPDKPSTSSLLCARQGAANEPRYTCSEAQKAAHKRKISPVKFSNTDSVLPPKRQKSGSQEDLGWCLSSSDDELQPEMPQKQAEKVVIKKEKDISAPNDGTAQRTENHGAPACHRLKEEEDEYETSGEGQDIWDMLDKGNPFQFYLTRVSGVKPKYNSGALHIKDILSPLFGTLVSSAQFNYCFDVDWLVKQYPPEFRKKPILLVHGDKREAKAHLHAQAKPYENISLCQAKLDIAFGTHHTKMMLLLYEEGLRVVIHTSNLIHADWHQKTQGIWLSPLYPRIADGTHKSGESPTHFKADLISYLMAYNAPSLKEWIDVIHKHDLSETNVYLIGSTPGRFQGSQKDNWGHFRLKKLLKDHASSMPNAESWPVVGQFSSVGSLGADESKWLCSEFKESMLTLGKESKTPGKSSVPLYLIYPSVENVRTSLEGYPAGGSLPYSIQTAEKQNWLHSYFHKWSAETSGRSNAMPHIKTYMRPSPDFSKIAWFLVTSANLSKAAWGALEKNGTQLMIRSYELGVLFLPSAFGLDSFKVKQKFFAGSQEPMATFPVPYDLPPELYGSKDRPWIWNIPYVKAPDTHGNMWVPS

Compound	Tdp1 inhibitory activity (in words) [1]	GI50 [2] [nM]	further results
CC(C)(C)OC(=O)NCCCn1c2c(c3ccc(NC(=O)CCCC(=O)O)cc3c1=O)C(=O)c1ccccc1-2 [Compound 30, 5-[(6-(3-((tert-Butoxycarbonyl)amino)propyl)-5,11-dioxo-6,11-dihydro-5H-indeno[1,2-c]isoquinolin-3-yl)amino]-5-oxopentanoic Acid]	inactive		
CC(C)(C)OC(=O)NCCCn1c2c(c3ccc(NCC(=O)O)cc3c1=O)C(=O)c1ccccc1-2 [Compound 42, 2-((6-(3-((tert-Butoxycarbonyl)amino)propyl)-5,11-dioxo-6,11-dihydro-5H-indeno[1,2-c]isoquinolin-3-yl)amino)acetic Acid]	inactivity		
CC(C)(C)OC(=O)NCCCn1c2c(c3ccc(NC(=O)CCC(=O)O)cc3c1=O)C(=O)c1ccccc1-2 [Compound 29, 4-[(6-(3-((tert-Butoxycarbonyl)amino)propyl)-5,11-dioxo-6,11-dihydro-5H-indeno[1,2-c]isoquinolin-3-yl)amino]-4-oxobutanoic Acid]	weakly active		
COc1ccc2c(c1)C(=O)c1c-2n(CCCN)c(=O)c2cc([N+](=O)[O-])ccc12 [Compound 54]		20 ± 0.8	
O=C1c2ccccc2-c2c1c1ccc([N+](=O)[O-])cc1c(=O)n2CCCO [Compound 63]		890 ± 220	
Cn1c2c(c3ccc(NC(=O)C(=O)O)cc3c1=O)C(=O)c1ccccc1-2 [Compound 14]			binding to the single-stranded DNA substrate [3]: did not bind
COc1ccc2c(c1)-c1c(c3ccc([N+](=O)[O-])cc3c(=O)n1CCCn1ccnc1)C2=O [Compound 52, 6-(3-(1H-Imidazol-1-yl)propyl)-8-methoxy-3-nitro-5H-indeno[1,2-c]isoquinoline-5,11(6H)-dione]	very weak or inactive	20 ± 0.6	suppression of Top1-mediated DNA cleavage at high drug concentration [4]: slight suppression; also recorded: does not
COC(=O)C(=O)Nc1ccc2c3c(n(C)c(=O)c2c1)-c1ccccc1C3=O [Compound 9, Methyl 2-[(6-Methyl-5,11-dioxo-6,11-dihydro-5H-indeno[1,2-c]isoquinolin-3-yl)amino]-2-oxoacetate]	inactive		
CC(C)(C)OC(=O)NCCCn1c2c(c3ccc(NC(=O)CCCCC(=O)O)cc3c1=O)C(=O)c1ccccc1-2 [Compound 31, 6-[(6-(3-((tert-Butoxycarbonyl)amino)propyl)-5,11-dioxo-6,11-dihydro-5H-indeno[1,2-c]isoquinolin-3-yl)amino]-6-oxohexanoic Acid]	weakly active		
COc1ccc2c(c1)C(=O)c1c-2n(CCCN(C)C)c(=O)c2cc(I)ccc12 [Compound 85, 3-Iodo-9-methoxy-6-(3-(Dimethylamino)propyl)-5H-indeno[1,2-c]isoquinoline-5,11(6H)-dione]			suppression of Top1-mediated DNA cleavage at high drug concentration [4]: complete suppression; also recorded: suppress
Cn1c2c(c3ccc(NC(=O)CC(=O)O)cc3c1=O)C(=O)c1ccccc1-2 [Compound 15, 3-[(6-Methyl-5,11-dioxo-6,11-dihydro-5H-indeno[1,2-c]isoquinolin-3-yl)amino]-3-oxopropanoic Acid]	inactive		

Continued, in another order:

Tdp1 inhibitory activity (in words) [1]	GI50 [2] [nM]	Compound	further results
inactivity; also recorded: inactive		Cn1c2c(c3ccc(NCC(=O)O)cc3c1=O)C(=O)c1ccccc1-2 [Compound 41, 2-[(6-Methyl-5,11-dioxo-6,11-dihydro-5H-indeno[1,2-c]isoquinolin-3-yl)amino]acetic Acid]	
	300 ± 14	CN(C)CCCn1c2c(c3ccc(C#N)cc3c1=O)C(=O)c1ccccc1-2 [Compound 74]	
active		CCOC(=O)CNc1ccc2c3c(n(CCCN)c(=O)c2c1)-c1ccccc1C3=O.Cl [Compound 40, Ethyl 2-[(6-(3-Aminopropyl)-5,11-dioxo-6,11-dihydro-5H-indeno[1,2-c]isoquinolin-3-yl)amino]acetate Hydrochloride]	
very weak or inactive		COc1ccc2c(c1)-c1c(c3ccc([N+](=O)[O-])cc3c(=O)n1CCCN1CCOCC1)C2=O [Compound 53, 8-Methoxy-6-(3-morpholinopropyl)-3-nitro-5H-indeno[1,2-c]isoquinoline-5,11(6H)-dione]	
very weak or inactive		COc1ccc2c(c1)-c1c(c3ccc([N+](=O)[O-])cc3c(=O)n1CCCN=[N+]=[N-])C2=O [Compound 50, 6-(3-Azidopropyl)-5,6-dihydro-8-methoxy-3-nitro-5,11-dioxo-11H-indeno[1,2-c]isoquinoline]	
	160	NCCCn1c2c(c3ccc(N)cc3c1=O)C(=O)c1ccccc1-2 [Compound 62]	
	250 ± 4	COc1ccc2c(c1)C(=O)c1c-2n(CCCN)c(=O)c2cc(I)ccc12 [Compound 84, 6-(3-Aminopropyl)-5,6-dihydro-9-methoxy-3-iodo-5,11-dioxo-11H-indeno[1,2-c]isoquinoline]	
inactivity; also recorded: inactive		CCOC(=O)CNc1ccc2c3c(n(C)c(=O)c2c1)-c1ccccc1C3=O [Compound 38, Ethyl 2-[(6-Methyl-5,11-dioxo-6,11-dihydro-5H-indeno[1,2-c]isoquinolin-3-yl)amino]acetate]	
	40	COc1ccc2c(c1)C(=O)c1c-2n(CCCN)c(=O)c2cc(N)ccc12 [Compound 89, 3-Amino-6-(3-aminopropyl)-5,6-dihydro-9-methoxy-5,11-dioxo-11H-indeno[1,2-c]isoquinoline Dihydrochloride]	
	1090	COC(=O)CCCC(=O)Nc1ccc2c3c(n(CCCN)c(=O)c2c1)-c1ccccc1C3=O [Compound 25, Methyl 5-[(6-(3-Aminopropyl)-5,11-dioxo-6,11-dihydro-5H-indeno[1,2-c]isoquinolin-3-yl)amino]-5-oxopentanoate]	
	170 ± 17	COc1ccc2c(c1)-c1c(c3ccc([N+](=O)[O-])cc3c(=O)n1CCCN)C2=O [Compound 51, 6-(3-Aminopropyl)-5,6-dihydro-8-methoxy-3-nitro-5,11-dioxo-11H-indeno[1,2-c]isoquinoline Hydrochloride]	
	1860 ± 380	COC(=O)C(=O)Nc1ccc2c3c(n(CCCN)c(=O)c2c1)-c1ccccc1C3=O [Compound 22, Methyl 2-[(6-(3-Aminopropyl)-5,11-dioxo-6,11-dihydro-5H-indeno[1,2-c]isoquinolin-3-yl)amino]-2-oxoacetate]	
	870 ± 14	NCCCn1c2c(c3ccc(NCC(=O)O)cc3c1=O)C(=O)c1ccccc1-2 [Compound 43, 2-((6-(3-Aminopropyl)-5,11-dioxo-6,11-dihydro-5H-indeno[1,2-c]isoquinolin-3-yl)amino)acetic Acid Hydrochloride]	
	1860	COC(=O)CC(=O)Nc1ccc2c3c(n(CCCN)c(=O)c2c1)-c1ccccc1C3=O [Compound 23, Methyl 3-[(6-(3-Aminopropyl)-5,11-dioxo-6,11-dihydro-5H-indeno[1,2-c]isoquinolin-3-yl)amino]-3-oxopropanoate]	
very weak or inactive		COc1ccc2c(c1)-c1c(c3ccc([N+](=O)[O-])cc3c(=O)n1CCCBr)C2=O [Compound 49, 6-(3-Bromopropyl)-5,6-dihydro-8-methoxy-3-nitro-5,11-dioxo-11H-indeno[1,2-c]isoquinoline]	
